Source: US20250255867A1 (Kadmon Corporation, LLC, priority 2022, published 2025)
Where a name gives a salt, the structure may show the parent alone.

Key:
[1] = Example 1: plasma pharmacokinetics (Cmax, Tmax, AUC0-6 hr) of belumosudil and metabolites; format: in vivo, human
Protocol: Cmax was the maximum observed plasma concentration, obtained by a non-compartmental analysis. […] Timeframe: Cycles 1 and 2: pre-dose (0 hour), 1, 2, 3, 4, 5, and 6 hours post-dose on Day 1. […] Here, ‘number analyzed’=participants with available data for each specified category.
Tmax was defined as time to reach maximum observed plasma concentration, obtained by a non-compartmental analysis. […] Timeframe: Cycles 1 and 2: pre-dose (0 hour), 1, 2, 3, 4, 5, and 6 hours post-dose on Day 1. Analysis was performed on PK population. Here, ‘number analyzed’=participants with available data for each specified category.
AUC0-6 hr was defined as area under the plasma concentration versus time curve from time 0 to 6 hours post-dose, obtained by a non-compartmental analysis from the concentration-time data. […] Timeframe: Cycles 1 and 2: pre-dose (0 hour), 1, 2, 3, 4, 5, and 6 hours post-dose on Day 1. Analysis was performed on PK population. Here, ‘number analyzed’=participants with available data for each specified category.

[2] = Solubility of belumosudil mesylate; format: physicochemical
[3] = Cohort 1: Belumosudil 200 mg QD, Cycle 1 Day 1
[4] = Cohort 1: Belumosudil 200 mg QD, Cycle 2 Day 1
[5] = Cohort 2: Belumosudil 200 mg BID, Cycle 1 Day 1
[6] = Cohort 2: Belumosudil 200 mg BID, Cycle 2 Day 1
[7] = Cohort 3: Belumosudil 400 mg QD, Cycle 1 Day 1
[8] = Cohort 3: Belumosudil 400 mg QD, Cycle 2 Day 1

Compound | Area Under the Plasma Concentration Versus Time Curve From Time 0 to 6 Hours Post-dose (AUC0-6 hr), Geometric Mean (Geometric Coefficient of Variation) [1, 3] | Maximum Observed Plasma Concentration (Cmax), Geometric Mean (Geometric Coefficient of Variation) [1, 3] | Area Under the Plasma Concentration Versus Time Curve From Time 0 to 6 Hours Post-dose (AUC0-6 hr), Geometric Mean (Geometric Coefficient of Variation) [1, 4] | Maximum Observed Plasma Concentration (Cmax), Geometric Mean (Geometric Coefficient of Variation) [1, 4] | Area Under the Plasma Concentration Versus Time Curve From Time 0 to 6 Hours Post-dose (AUC0-6 hr), Geometric Mean (Geometric Coefficient of Variation) [1, 5] | Maximum Observed Plasma Concentration (Cmax), Geometric Mean (Geometric Coefficient of Variation) [1, 5] | Area Under the Plasma Concentration Versus Time Curve From Time 0 to 6 Hours Post-dose (AUC0-6 hr), Geometric Mean (Geometric Coefficient of Variation) [1, 6] | Maximum Observed Plasma Concentration (Cmax), Geometric Mean (Geometric Coefficient of Variation) [1, 6] | Area Under the Plasma Concentration Versus Time Curve From Time 0 to 6 Hours Post-dose (AUC0-6 hr), Geometric Mean (Geometric Coefficient of Variation) [1, 7] | Maximum Observed Plasma Concentration (Cmax), Geometric Mean (Geometric Coefficient of Variation) [1, 7] | Area Under the Plasma Concentration Versus Time Curve From Time 0 to 6 Hours Post-dose (AUC0-6 hr), Geometric Mean (Geometric Coefficient of Variation) [1, 8] | Maximum Observed Plasma Concentration (Cmax), Geometric Mean (Geometric Coefficient of Variation) [1, 8] | Solubility in DMF [2] | Solubility in DMSO [2] | Solubility in methanol [2] | Solubility in water [2]
O=C(O)COc1cccc(-c2nc(Nc3ccc4[nH]ncc4c3)c3ccccc3n2)c1 [KD025m2] | 565 (90.8%) hours*nanograms per milliliter | 208 (93.1%) nanograms per milliliter | 471 (145%) hours*nanograms per milliliter | 158 (150%) nanograms per milliliter | 282 (125%) hours*nanograms per milliliter | 99.2 (112%) nanograms per milliliter | 513 (122%) hours*nanograms per milliliter | 145 (147%) nanograms per milliliter | 1150 (97.1%) hours*nanograms per milliliter | 388 (82.3%) nanograms per milliliter | 923 (144%) hours*nanograms per milliliter | 265 (154%) nanograms per milliliter |  |  |  | 
NC(=O)COc1cccc(-c2nc(Nc3ccc4[nH]ncc4c3)c3ccccc3n2)c1 [KD025m1] | 140 (72.3%) hours*nanograms per milliliter | 44.4 (67.9%) nanograms per milliliter | 123 (38.2%) hours*nanograms per milliliter | 36.2 (43.0%) nanograms per milliliter | 114 (60.8%) hours*nanograms per milliliter | 34.8 (58.8%) nanograms per milliliter | 160 (31.3%) hours*nanograms per milliliter | 45.0 (38.6%) nanograms per milliliter | 216 (61.9%) hours*nanograms per milliliter | 63.9 (59.4%) nanograms per milliliter | 178 (72.9%) hours*nanograms per milliliter | 55.8 (82.1%) nanograms per milliliter |  |  |  | 
CC(C)NC(=O)COc1cccc(-c2nc(Nc3ccc4[nH]ncc4c3)c3ccccc3n2)c1 [Belumosudil mesylate, 2-{3-[4-(1H-indazol-5-ylamino)-2-quinazolinyl]phenoxy}-N-(propan-2-yl) acetamide methanesulfonate (1:1)] |  |  |  |  |  |  |  |  |  |  |  |  | slightly soluble | soluble | slightly soluble | practically insoluble
